Assay results as given in ChEMBL document CHEMBL5518204, “Discovery and Proof of Concept of Potent Dual Polθ/PARP Inhibitors for Efficient Treatment of Homologous Recombination-Deficient Tumors” (J Med Chem, 2024).
The source made the active and inactive calls. No cut-off for these calls is given here.

Columns and labels:
[1] = Antiproliferative activity against human MCF-10A cells assessed as inhibition of cell proliferation incubated for 5 days by MTT assay; assay type: toxicity, cell-based; details: human, MCF-10A cells
[2] = MRT (0 to infinity) in Sprague-Dawley rat at 1 mg/kg, iv by LC-MS/MS analysis; assay type: ADME, organism-based; details: in vivo
[3] = AUC (0 to infinity) in Sprague-Dawley rat at 1 mg/kg, iv by LC-MS/MS analysis; assay type: ADME, organism-based; details: in vivo
[4] = Clearance in Sprague-Dawley rat at 1 mg/kg, iv by LC-MS/MS analysis; assay type: ADME, organism-based; details: in vivo
[5] = tested on: MDA-MB-231; experiment: Induction of cell cycle arrest in human MDA-MB-231 cells assessed as accumulation of cells at G2/M phase at 2 uM incubated for 3 days by PI staining based flow cytometric analysis; assay type: functional; details: time 3.0 day
[6] = Toxicity in BALB/c mouse xenografted with human MDA-MB-231 cells assessed as heart damage at 20 to 40 mg/kg, ip administered for 21 days by H and E staining based analysis; assay type: organism-based; details: in vivo, 504 h, dose 20-40 mg/kg, time 21 day
[7] = Metabolic stability in rat liver microsome assessed as intrinsic clearance; assay type: ADME; details: liver microsomes, read-out: CLH
[8] = Metabolic stability in mouse liver microsome assessed as intrinsic clearance; assay type: ADME; details: liver microsomes, read-out: CLH
[9] = tested on: MDA-MB-436; experiment: Antiproliferative activity against human MDA-MB-436 cells transfected with SiRNA assessed as inhibition of cell proliferation incubated for 5 days by MTT assay; assay type: functional, cell-based; details: time 5.0 day
[10] = Toxicity in BALB/c mouse xenografted with human MDA-MB-231 cells assessed as increase in body weight at 20 to 40 mg/kg, ip administered for 21 days; assay type: organism-based; details: in vivo, 504 h, dose 20-40 mg/kg, time 21 day
[11] = Apparent volume of distribution in Sprague-Dawley rat at 1 mg/kg, iv by LC-MS/MS analysis; assay type: ADME, organism-based; details: in vivo, read-out: Vz
[12] = biological target: Poly [ADP-ribose] polymerase 1 (Homo sapiens, UniProt P09874); details: dose 10.0 nM, time 90.0 min
Chain of Poly [ADP-ribose] polymerase 1 (P09874 whole entry): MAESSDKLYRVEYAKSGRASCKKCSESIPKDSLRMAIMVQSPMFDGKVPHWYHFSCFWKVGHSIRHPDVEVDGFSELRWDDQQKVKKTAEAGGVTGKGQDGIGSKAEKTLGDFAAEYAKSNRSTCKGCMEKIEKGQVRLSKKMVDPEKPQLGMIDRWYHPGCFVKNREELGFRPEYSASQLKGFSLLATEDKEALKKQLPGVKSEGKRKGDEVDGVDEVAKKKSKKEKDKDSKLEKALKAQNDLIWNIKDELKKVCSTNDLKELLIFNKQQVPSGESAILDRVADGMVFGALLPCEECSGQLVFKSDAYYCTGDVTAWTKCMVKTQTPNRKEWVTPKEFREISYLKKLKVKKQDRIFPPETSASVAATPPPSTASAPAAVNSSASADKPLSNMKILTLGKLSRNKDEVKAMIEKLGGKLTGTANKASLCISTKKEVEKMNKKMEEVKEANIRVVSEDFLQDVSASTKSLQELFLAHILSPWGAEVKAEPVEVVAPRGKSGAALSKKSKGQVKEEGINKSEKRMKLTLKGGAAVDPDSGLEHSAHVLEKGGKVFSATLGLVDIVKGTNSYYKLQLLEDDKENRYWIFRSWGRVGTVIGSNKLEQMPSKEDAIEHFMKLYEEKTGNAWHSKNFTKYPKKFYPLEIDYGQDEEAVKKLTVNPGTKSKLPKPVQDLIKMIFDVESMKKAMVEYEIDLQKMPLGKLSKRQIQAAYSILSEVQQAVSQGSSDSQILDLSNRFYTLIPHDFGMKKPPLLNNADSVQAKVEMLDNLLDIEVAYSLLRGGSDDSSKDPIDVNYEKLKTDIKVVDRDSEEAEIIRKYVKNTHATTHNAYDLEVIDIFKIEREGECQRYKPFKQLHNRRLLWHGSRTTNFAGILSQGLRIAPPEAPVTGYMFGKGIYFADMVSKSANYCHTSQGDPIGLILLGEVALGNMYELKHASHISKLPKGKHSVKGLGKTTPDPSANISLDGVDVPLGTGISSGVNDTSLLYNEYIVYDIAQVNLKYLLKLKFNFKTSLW

[13] = tested on: MDA-MB-231; experiment: Induction of DNA damage in human MDA-MB-231 cells assessed as increase in tail intensity at 2 uM incubated for 3 days by florescence microscopic analysis; assay type: functional, cell-based; details: time 3.0 day
[14] = tested on: SW48; experiment: Antiproliferative activity against BRCA2-deficient human SW48 cells assessed as inhibition of cell proliferation incubated for 5 days by MTT assay; assay type: functional, cell-based; details: SW48, 120 h, read-out: IC50
[15] = tested on: MCF-10A; experiment: Effect on DNA polymerase theta expression in human MCF-10A cells by immunoblotting analysis; assay type: functional, cell-based
[16] = Stability in rat plasma assessed as half life; assay type: ADME, cell-free
[17] = Toxicity in BALB/c mouse xenografted with human MDA-MB-231 cells assessed as spleen damage at 20 to 40 mg/kg, ip administered for 21 days by H and E staining based analysis; assay type: organism-based; details: in vivo, 504 h, dose 20-40 mg/kg, time 21 day
[18] = biological target: T1, Poly [ADP-ribose] polymerase tankyrase-2 (Homo sapiens, UniProt Q9H2K2); experiment: Inhibition of PARP5b (unknown origin)
T1 sequence (Q9H2K2 whole entry): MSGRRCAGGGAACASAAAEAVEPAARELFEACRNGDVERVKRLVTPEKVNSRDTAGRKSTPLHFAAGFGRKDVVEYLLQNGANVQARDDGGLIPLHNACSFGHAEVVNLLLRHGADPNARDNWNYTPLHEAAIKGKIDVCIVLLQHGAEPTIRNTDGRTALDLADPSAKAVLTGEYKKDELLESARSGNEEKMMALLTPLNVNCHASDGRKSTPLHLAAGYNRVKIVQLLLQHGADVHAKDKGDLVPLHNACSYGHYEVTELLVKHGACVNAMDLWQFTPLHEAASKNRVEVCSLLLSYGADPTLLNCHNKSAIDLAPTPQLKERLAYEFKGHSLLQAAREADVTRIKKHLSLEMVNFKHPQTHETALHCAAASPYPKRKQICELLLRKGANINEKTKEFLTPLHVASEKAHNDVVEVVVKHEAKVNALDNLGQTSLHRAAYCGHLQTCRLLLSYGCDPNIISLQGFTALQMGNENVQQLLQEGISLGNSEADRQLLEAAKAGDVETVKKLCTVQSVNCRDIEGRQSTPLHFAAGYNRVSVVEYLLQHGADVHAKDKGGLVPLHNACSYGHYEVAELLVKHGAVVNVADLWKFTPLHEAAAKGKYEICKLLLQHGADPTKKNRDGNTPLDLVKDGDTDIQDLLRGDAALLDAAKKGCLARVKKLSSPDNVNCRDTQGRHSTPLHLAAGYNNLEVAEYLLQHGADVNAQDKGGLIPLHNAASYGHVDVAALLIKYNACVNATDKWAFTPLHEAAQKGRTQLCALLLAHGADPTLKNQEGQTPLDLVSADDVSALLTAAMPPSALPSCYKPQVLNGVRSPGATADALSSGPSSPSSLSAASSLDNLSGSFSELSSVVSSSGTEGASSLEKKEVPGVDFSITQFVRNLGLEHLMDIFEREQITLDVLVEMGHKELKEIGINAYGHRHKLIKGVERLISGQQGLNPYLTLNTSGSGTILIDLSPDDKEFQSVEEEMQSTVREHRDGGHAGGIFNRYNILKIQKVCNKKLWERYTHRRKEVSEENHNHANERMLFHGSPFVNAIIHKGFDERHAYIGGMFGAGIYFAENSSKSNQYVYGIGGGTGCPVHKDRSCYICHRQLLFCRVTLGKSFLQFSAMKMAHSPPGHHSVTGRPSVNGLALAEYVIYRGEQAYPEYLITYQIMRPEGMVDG

[19] = biological target: T2, DNA polymerase theta (Homo sapiens, UniProt O75417); experiment: Inhibition of DNA polymerase theta mediated TMEJ repair activity in HEK293 cells incubated for 24 hrs by Nano-glo luciferase assay; assay type: cell-based
T2 sequence (O75417 whole entry): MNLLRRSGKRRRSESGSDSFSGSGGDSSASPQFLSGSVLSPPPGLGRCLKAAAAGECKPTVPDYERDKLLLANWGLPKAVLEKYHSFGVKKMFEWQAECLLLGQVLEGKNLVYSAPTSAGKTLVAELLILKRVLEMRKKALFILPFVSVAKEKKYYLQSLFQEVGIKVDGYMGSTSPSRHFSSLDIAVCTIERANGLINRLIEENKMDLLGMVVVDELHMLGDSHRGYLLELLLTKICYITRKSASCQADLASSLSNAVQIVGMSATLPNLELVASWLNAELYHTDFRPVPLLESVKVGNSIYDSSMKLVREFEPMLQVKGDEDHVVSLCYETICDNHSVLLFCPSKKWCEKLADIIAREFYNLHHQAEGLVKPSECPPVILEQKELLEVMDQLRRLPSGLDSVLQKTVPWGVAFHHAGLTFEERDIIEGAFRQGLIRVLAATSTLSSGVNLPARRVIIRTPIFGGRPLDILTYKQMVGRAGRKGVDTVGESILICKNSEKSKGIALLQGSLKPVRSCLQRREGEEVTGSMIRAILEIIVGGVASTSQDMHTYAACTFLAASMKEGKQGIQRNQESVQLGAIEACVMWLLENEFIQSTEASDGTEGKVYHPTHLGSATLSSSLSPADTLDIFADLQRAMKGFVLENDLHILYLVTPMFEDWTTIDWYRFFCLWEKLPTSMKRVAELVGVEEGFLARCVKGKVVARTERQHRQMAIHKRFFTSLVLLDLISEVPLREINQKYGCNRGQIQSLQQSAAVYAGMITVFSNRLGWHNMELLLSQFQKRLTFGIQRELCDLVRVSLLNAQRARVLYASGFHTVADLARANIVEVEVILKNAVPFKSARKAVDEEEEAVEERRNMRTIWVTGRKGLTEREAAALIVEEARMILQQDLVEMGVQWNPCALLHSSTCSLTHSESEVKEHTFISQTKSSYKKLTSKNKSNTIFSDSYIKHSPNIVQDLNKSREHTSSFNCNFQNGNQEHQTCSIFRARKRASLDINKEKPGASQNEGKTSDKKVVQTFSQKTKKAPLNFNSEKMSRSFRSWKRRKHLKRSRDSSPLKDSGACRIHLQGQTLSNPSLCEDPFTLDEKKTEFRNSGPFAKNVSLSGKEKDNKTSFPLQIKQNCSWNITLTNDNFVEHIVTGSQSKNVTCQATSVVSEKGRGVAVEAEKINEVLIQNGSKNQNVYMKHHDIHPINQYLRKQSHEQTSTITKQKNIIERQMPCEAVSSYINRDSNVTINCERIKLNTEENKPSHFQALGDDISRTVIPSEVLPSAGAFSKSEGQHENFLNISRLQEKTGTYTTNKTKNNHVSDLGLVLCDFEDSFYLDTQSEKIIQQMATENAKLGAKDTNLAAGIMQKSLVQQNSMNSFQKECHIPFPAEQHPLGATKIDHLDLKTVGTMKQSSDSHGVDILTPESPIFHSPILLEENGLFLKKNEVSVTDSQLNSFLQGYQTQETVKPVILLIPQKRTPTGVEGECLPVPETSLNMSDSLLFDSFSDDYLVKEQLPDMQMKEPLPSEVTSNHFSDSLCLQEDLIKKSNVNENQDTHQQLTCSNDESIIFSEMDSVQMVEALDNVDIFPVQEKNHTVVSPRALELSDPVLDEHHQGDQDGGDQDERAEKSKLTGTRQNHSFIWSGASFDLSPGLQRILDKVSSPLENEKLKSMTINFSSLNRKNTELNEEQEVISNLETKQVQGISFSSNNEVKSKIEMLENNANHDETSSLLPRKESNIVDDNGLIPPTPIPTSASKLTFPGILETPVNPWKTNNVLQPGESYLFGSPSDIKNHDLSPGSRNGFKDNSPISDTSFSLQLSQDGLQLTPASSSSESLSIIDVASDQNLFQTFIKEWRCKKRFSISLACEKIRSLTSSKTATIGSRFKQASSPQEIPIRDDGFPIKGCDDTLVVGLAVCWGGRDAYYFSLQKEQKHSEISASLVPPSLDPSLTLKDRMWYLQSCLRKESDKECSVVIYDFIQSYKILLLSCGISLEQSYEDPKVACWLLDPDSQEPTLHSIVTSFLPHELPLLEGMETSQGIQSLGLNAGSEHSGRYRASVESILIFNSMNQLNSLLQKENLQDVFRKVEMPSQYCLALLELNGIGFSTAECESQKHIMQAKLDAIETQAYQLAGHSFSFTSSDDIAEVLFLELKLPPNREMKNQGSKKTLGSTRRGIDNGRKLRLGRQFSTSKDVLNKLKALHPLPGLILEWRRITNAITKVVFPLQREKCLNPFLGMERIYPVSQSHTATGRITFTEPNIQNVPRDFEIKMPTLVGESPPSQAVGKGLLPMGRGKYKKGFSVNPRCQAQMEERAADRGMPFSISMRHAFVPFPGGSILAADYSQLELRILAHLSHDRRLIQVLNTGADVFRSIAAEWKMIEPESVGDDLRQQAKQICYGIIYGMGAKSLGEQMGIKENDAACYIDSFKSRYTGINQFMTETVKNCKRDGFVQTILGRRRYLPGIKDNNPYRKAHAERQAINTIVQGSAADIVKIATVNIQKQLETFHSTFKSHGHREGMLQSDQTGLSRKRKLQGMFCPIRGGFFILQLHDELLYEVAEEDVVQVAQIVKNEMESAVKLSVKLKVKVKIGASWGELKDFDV

[20] = Metabolic stability in human liver microsome assessed as half life; assay type: ADME; details: liver microsomes
[21] = tested on: MDA-MB-436; experiment: Antiproliferative activity against BRCA1-deficient human MDA-MB-436 cells assessed as inhibition of cell proliferation incubated for 5 days by MTT assay; assay type: functional, cell-based; details: MDA-MB-436, 120 h
[22] = Half life in Sprague-Dawley rat at 1 mg/kg, iv by LC-MS/MS analysis; assay type: ADME, organism-based; details: in vivo
[23] = tested on: MDA-MB-231; experiment: Antitumor activity against human MDA-MB-231 cells xenografted in BALB/c mouse assessed as tumor growth inhibition at 25 mg/kg, ip administered for 21 days; assay type: functional; details: MDA-MB-231, 504 h, time 21 day, read-out: TGI
[24] = biological target: T2, DNA polymerase theta; experiment: Inhibition of DNA polymerase theta (unknown origin) ATPase activity incubated for 60 mins in presence of ATP by ADP-glo kinase assay
[25] = tested on: MDA-MB-231; experiment: Antiproliferative activity against 53BP1-knockdown human MDA-MB-231 cells incubated for 24 hrs by MTT assay; assay type: functional, cell-based
[26] = AUC (0 to t) in Sprague-Dawley rat at 1 mg/kg, iv by LC-MS/MS analysis; assay type: ADME, organism-based; details: in vivo

Question: Which IC50 at 5 days [1] does the source give for `COc1ccc(Cl)cc1-c1cc(C)ncc1C(=O)Nc1nnc(OCC2CCN(C(=O)c3cc(Cc4n[nH]c(=O)c5ccccc45)ccc3F)CC2)s1` here?
Answer: > 80000 nM

Question: And the MRT inf [2]?
Answer: 0.6 h

Question: What about the AUC(0-inf) [3] of the same compound?
Answer: 738 ng·h/mL

Question: And the clearance [4]?
Answer: 22.7 mL/min/kg

Question: And the Activity [5]?
Answer: Active

Question: And the Activity [6]?
Answer: Non-Toxic

Question: What about the CLint scaled [7] of the same compound?
Answer: 802 mL/min/kg

Question: And the CLint scaled [8]?
Answer: 1070 mL/min/kg

Question: And the Activity [9]?
Answer: Active

Question: What about the Activity [10] of the same compound?
Answer: Non-Toxic

Question: What about the Vd [11] of the same compound?
Answer: 3.97 L/kg

Question: What about the inhibition [12] of the same compound?
Answer: 71.1%

Question: And the Activity [13]?
Answer: Active

Question: And the IC50 [14]?
Answer: 2900 nM

Question: And the Activity [15]?
Answer: Active

Question: What about the half-life [16] of the same compound?
Answer: 38.5 h

Question: What about the Activity [17] of the same compound?
Answer: Non-Toxic

Question: And the IC50 [18]?
Answer: 156 nM

Question: What about the IC50 [19] of the same compound?
Answer: 88 nM

Question: And the half-life [20]?
Answer: 2.35 min

Question: What about the IC50 [21] of the same compound?
Answer: 2700 nM

Question: And the half-life [22]?
Answer: 2 h

Question: What about the inhibition in vivo at 25 mg/kg [23] of the same compound?
Answer: 54.4%

Question: And the IC50 [24]?
Answer: 45.6 nM

Question: And the Activity [25]?
Answer: Active

Question: And the AUC(0-t) [26]?
Answer: 724 ng·h/mL
